Assay [1] has as its system HCV replicon 1AY93H. As to the kind of experiment: Cell-based HCV Replicon Assay A, replicon 1AY93H. Summed up: (§1)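 Replicon cells were seeded at 2000 cells/well with test compound in 10 serial dilutions, starting at 333.3 nM to 1.667 nM, in 0.5% DMSO and 5% FBS. On day 3, cells were washed and lysed, and replicon RNA was quantified by multiplex TaqMan RT-PCR normalised to cyclophilin.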
For orientation: A replicon is a self-replicating genome or part of one, used to study replication in cells.

For assay [2], the system named is HCV replicon 1B. Kind of assay: Cell-based HCV Replicon Assay B, replicon 1B. On the procedure: In an alternate assay (“Replicon Assay B”), 1000 cells were seeded per well in a 384-well collagen coated black plate from Greiner bio-one (Cat #781946) in 5% FBS. Inhibitors of this invention were added at 24 h post-seeding, and the plates were incubated for 3 days. Cells were subsequently lysed with Qiagen lysis buffer (Cat #1062731) to extract the RNA. HCV replicon RNA level was measured by real-time PCR using the RNA-to-CT kit from Applied Biosystem (Cat #4392656) and genotype-specific primers and probes. The amplicon was located within NS5B. The sequence of the PCR primers are as follows: 5B.2F, ATGGACAGGCGCCCTGA (SEQ. ID NO. 1); 5B.2R, […] (SEQ. ID NO. 2); the probe sequence was FAM-labeled CACGCCATGCGCTGCGG (SEQ. ID NO. 3). To detect genotype 1A the primer 1A F, TGCGGAACCGGTGAGTACA and 1A R, […] were used; the probe sequence was FAM-[…].
The real-time RT-PCR reactions were run on ABI PRISM 7900HT or Viia7 Sequence Detection System using the following program: 48° C. for 30 minutes, 95° C. for 10 minutes, 40 cycles of 95° C. for 15 sec, 60° C. for 1 minutes. The 50% effective concentration (EC50) was the drug concentration necessary to achieve an increase in the cycle threshold (CT) of 1 over the projected baseline CT.
Data was obtained for various compounds of the present invention using the methods described in the Example above, and is presented in the table immediately below. Data for replicons 1A, 1AY93H and 2B were obtained using Replicon Assay A and data for replicons 1AQ30D and 1B were obtained using Replicon Assay B.

Assay [3] deals with HCV replicon 1A. Kind of assay: Cell-based HCV Replicon Assay A, replicon 1A. The method, boiled down:
as §1

Assay [4] deals with HCV replicon 2B. As to the kind of experiment: Cell-based HCV Replicon Assay A, replicon 2B. Summed up:
as §1

The mark [5] stands for this setting: Hepatitis C virus, read-out: 1A Y93H IC50 (nM), replicon 1AY93H.
The mark [6] stands for this setting: Hepatitis C virus, read-out: 2B IC50 (nM), replicon 2B.
Where [7] appears, read: read-out: 1A Y93H IC50, replicon 1AY93H.

Where two headings read alike, the source gives them in different places.

A word on the IC50: it is the concentration needed to halve the response being measured. Take `COC(=O)N[C@H](C(=O)N1CCC[C@H]1c1ncc(-c2cc(F)c3c(c2)OC(c2csnn2)n2c-3cc3cc(-c4cnc([C@@H]5CCCN5C(=O)[C@@H](NC(=O)OC)C(C)C)[nH]4)ccc32)[nH]1)C(C)C` (mixture of isomers) [Compound 501]: the IC50 in assay [1] (setting [5]) was found to be 0.857 nM; in assay [2] (Hepatitis C virus), 3.6 pM; in assay [3] (Hepatitis C virus) it was 3.9 pM; in assay [4] (setting [6]) it was 1.32 nM.
In the case of `COCc1ncc(C2Oc3cc(-c4cnc([C@@H]5CCCN5C(=O)[C@@H](NC(=O)OC)C(C)C)[nH]4)cc(F)c3-c3cc4cc(-c5cnc([C@@H]6CCCN6C(=O)[C@@H](NC(=O)OC)C(C)C)[nH]5)ccc4n32)s1` (single isomer, unassigned) [Compound 17], the IC50 in assay [1] (setting [7]) stood at 1.01 nM; in assay [2] (Hepatitis C virus), 2 pM; in assay [3] (Hepatitis C virus) it was 1.2 pM; in assay [4] (read-out: 2B IC50, replicon 2B), 0.528 nM.
Consider `COC(=O)N[C@H](C(=O)N1CCC[C@H]1c1ncc(-c2cc(F)c3c(c2)OC(c2cnc(-c4ccc(OC)cc4)s2)n2c-3cc3cc(-c4cnc([C@@H]5CCCN5C(=O)[C@@H](NC(=O)OC)C(C)C)[nH]4)ccc32)[nH]1)C(C)C` (single isomer, unassigned) [Compound 46], for which the IC50 in assay [1] (setting [7]) is 0.534 nM; in assay [2] it was 1 pM; in assay [3] it was 1.8 pM; in assay [4] (read-out: 2B IC50, replicon 2B), 0.252 nM.
On to `CCCc1ncc(C2Oc3cc(-c4cnc([C@@H]5CCCN5C(=O)[C@@H](NC(=O)OC)C(C)C)[nH]4)cc(F)c3-c3cc4cc(-c5cnc([C@@H]6CCCN6C(=O)C(NC(=O)OC)C6CCOC(C)(C)C6)[nH]5)ccc4n32)s1` (single isomer, unassigned) [Compound 60], for which the IC50 in assay [1] (setting [7]) worked out at 0.4 nM; in assay [2], 4 pM; in assay [3], 4 pM; in assay [4] (read-out: 2B IC50, replicon 2B) it was 0.184 nM.
In the case of `COC(=O)NC(C(=O)N1CCC[C@H]1c1ncc(-c2ccc3c(c2)cc2n3C(c3cnc(C(C)(C)O)s3)Oc3cc(-c4cnc([C@@H]5CCCN5C(=O)[C@@H](NC(=O)OC)C(C)C)[nH]4)cc(F)c3-2)[nH]1)C1C[C@@H](C)O[C@@H](C)C1` (single isomer, unassigned) [Compound 73], the IC50 was found to be 0.586 nM in assay [1] (setting [7]); 5 pM in assay [2] (Hepatitis C virus); 5.7 pM in assay [3] (Hepatitis C virus); 0.146 nM in assay [4] (read-out: 2B IC50, replicon 2B).
On to `COC(=O)N[C@H](C(=O)N1CCC[C@H]1c1ncc(-c2cc(F)c3c(c2)OC(c2cnc(-c4ccc(F)cc4F)s2)n2c-3cc3cc(-c4cnc([C@@H]5CCCN5C(=O)[C@@H](NC(=O)OC)C(C)C)[nH]4)ccc32)[nH]1)C(C)C` (single isomer, unassigned) [Compound 98], for which the IC50 in assay [1] (setting [7]) was determined as 0.01 nM; in assay [2] (Hepatitis C virus), 1.2 pM; in assay [3] (Hepatitis C virus), 2.7 pM; in assay [4] (read-out: 2B IC50, replicon 2B), 0.003 nM.
For the compound `COC(=O)NC(C(=O)N1CCC[C@H]1c1ncc(-c2ccc3c(c2)cc2n3C(c3cnc(C4CCCC4)s3)Oc3cc(-c4cnc([C@@H]5CCCN5C(=O)[C@@H](NC(=O)OC)C(C)C)[nH]4)cc(F)c3-2)[nH]1)C1CCOC(C)(C)C1` (single isomer, unassigned) [Compound 111], the IC50 turned out to be 0.005 nM in assay [1] (setting [5]), 2 pM in assay [2] (Hepatitis C virus), 2.2 pM in assay [3] (Hepatitis C virus) and 0.003 nM in assay [4] (setting [6]).
`COC(=O)N[C@H](C(=O)N1CCC[C@H]1c1ncc(-c2cc(C)c3c(c2)OC(c2cnc(C4CCC4)s2)n2c-3cc3cc(-c4cnc([C@@H]5C[C@H]6C[C@H]6N5C(=O)[C@@H](NC(=O)OC)C(C)C)[nH]4)ccc32)[nH]1)C(C)C` (single isomer, unassigned) [Compound 207]: the IC50 was 0.26 nM in assay [1] (setting [5]), 5 pM in assay [2] (Hepatitis C virus), 3 pM in assay [3] (Hepatitis C virus) and 0.25 nM in assay [4] (setting [6]).
Regarding `COC(=O)NC(C(=O)N1[C@@H]2C[C@@H]2C[C@H]1c1ncc(-c2ccc3c(c2)cc2n3C(c3cnc(C4CC4)s3)Oc3cc(-c4cnc([C@@H]5CCCN5C(=O)[C@@H](NC(=O)OC)C(C)C)[nH]4)cc(C)c3-2)[nH]1)C1C[C@@H](C)O[C@@H](C)C1` (single isomer, unassigned) [Compound 216], the IC50 in assay [1] (setting [7]) is 0.292 nM; in assay [2] (Hepatitis C virus), 4 pM; in assay [3] (Hepatitis C virus), 2.4 pM; in assay [4] (read-out: 2B IC50, replicon 2B) it was 0.086 nM.
For the compound `COC(=O)N[C@H](C(=O)N1CCC[C@H]1c1ncc(-c2cc(F)c3c(c2)OC(c2cnc(C(C)(C)C)s2)n2c-3cc3cc(-c4cnc([C@@H]5CCCN5C(=O)[C@@H](NC(=O)OC)C(C)C)[nH]4)ccc32)[nH]1)C(C)C` (single isomer, unassigned) [Compound 303], the IC50 is 0.0475 nM in assay [1] (setting [7]); 3 pM in assay [2]; 2.6 pM in assay [3]; 0.942 nM in assay [4] (read-out: 2B IC50, replicon 2B).
As for `COC(=O)NC(C(=O)N1[C@@H]2C[C@@H]2C[C@H]1c1ncc(-c2ccc3c(c2)cc2n3C(c3cnc(C4CC4)s3)Oc3cc(-c4cnc([C@@H]5CCCN5C(=O)[C@@H](NC(=O)OC)C(C)C)[nH]4)cc(F)c3-2)[nH]1)C1CCOC(C)(C)C1` (single isomer, unassigned) [Compound 313], the IC50 amounted to 0.231 nM in assay [1] (setting [5]); 45 pM in assay [2] (Hepatitis C virus); 3.2 pM in assay [3] (Hepatitis C virus); 0.122 nM in assay [4] (read-out: 2B IC50, replicon 2B).
As to `COC(=O)NC(C(=O)N1CCC[C@H]1c1ncc(-c2ccc3c(c2)cc2n3C(c3cnc(C(C)(C)C)s3)Oc3cc(-c4cnc([C@@H]5CCCN5C(=O)[C@@H](NC(=O)OC)C(C)C)[nH]4)cc(F)c3-2)[nH]1)C1CCOC(C)(C)C1` (single isomer, unassigned) [Compound 315], the half-inhibitory concentration (IC50) was 0.0028 nM in assay [1] (setting [7]); 2 pM in assay [2] (Hepatitis C virus); 2.7 pM in assay [3]; 0.004 nM in assay [4] (read-out: 2B IC50, replicon 2B).
Take `COC(=O)NC(C(=O)N1CCC[C@H]1c1ncc(-c2ccc3c(c2)cc2n3C(c3cnc(C(C)(C)C)s3)Oc3cc(-c4cnc([C@@H]5CCCN5C(=O)[C@@H](NC(=O)OC)C(C)C)[nH]4)cc(F)c3-2)[nH]1)C1CCOC(C)(C)C1` (single isomer, unassigned) [Compound 316]: the IC50 turned out to be 0.0162 nM in assay [1] (setting [7]); 4 pM in assay [2]; 1.1 pM in assay [3]; 0.012 nM in assay [4] (read-out: 2B IC50, replicon 2B).
On to `COC(=O)N[C@H](C(=O)N1CCC[C@H]1c1ncc(-c2cc(F)c3c(c2)OC(c2csc(C4CC4)n2)n2c-3cc3cc(-c4cnc([C@@H]5CCCN5C(=O)[C@@H](NC(=O)OC)C(C)C)[nH]4)ccc32)[nH]1)C(C)C` (single isomer, unassigned) [Compound 432], for which the IC50 in assay [1] (setting [7]) came to 2.6 nM; in assay [2] (Hepatitis C virus) it was 1 pM; in assay [3] (Hepatitis C virus), 1 pM; in assay [4] (read-out: 2B IC50, replicon 2B) it was 4 nM.
Turning to `COC(=O)NC(C(=O)N1CCC[C@H]1c1ncc(-c2ccc3c(c2)cc2n3C(c3sc(C(C)C)nc3C)Oc3cc(-c4cnc([C@@H]5CCCN5C(=O)[C@@H](NC(=O)OC)C(C)C)[nH]4)cc(F)c3-2)[nH]1)C1CCOC(C)(C)C1` (single isomer, unassigned) [Compound 434], the IC50 in assay [1] (setting [5]) is 0.729 nM; in assay [2] (Hepatitis C virus), 3.5 pM; in assay [3] (Hepatitis C virus) it was 2.3 pM; in assay [4] (setting [6]), 0.293 nM.
On to `COC(=O)NC(C(=O)N1CCC[C@H]1c1ncc(-c2ccc3c(c2)cc2n3C(c3sc(C(C)C)nc3C)Oc3cc(-c4cnc([C@@H]5CCCN5C(=O)[C@@H](NC(=O)OC)C(C)C)[nH]4)cc(F)c3-2)[nH]1)C1CCOC(C)(C)C1` (single isomer, unassigned) [Compound 435], for which the IC50 is 0.618 nM in assay [1] (setting [7]); 3.8 pM in assay [2]; 2.8 pM in assay [3]; 0.181 nM in assay [4] (read-out: 2B IC50, replicon 2B).

(Values after US9555038B2, “Heterocycle-substituted tetracyclic compounds and methods of use thereof for the treatment of viral diseases” (Merck Sharp & Dohme Corp., priority 2013, dated 2017).)
